In patent US20260263403A1, “COMPOSITIONS AND METHODS FOR TREATING TRAUMATIC BRAIN INJURY” (THE CHILDREN'S HOSPITAL OF PHILADELPHIA, priority 2023, published 2026):

How the values were obtained:
[1] = tested on: acetate levels in the brain; conditions: dietary supplement, within one hour of administration; cited from earlier work
[2] = solubility/precipitation of BCAA drink during study preparation; format: physicochemical; conditions: 60 g/day dose divided twice daily, initial study preparation
From the text: The three BCAAs, valine, isoleucine, and leucine, were combined together in a 1:1:1 ratio for the four treatment doses. […] Given the unknown optimal dose of BCAA supplementation for concussion, doses of 15 g, 30 g, 45 g, and 60 g divided twice daily were chosen as initial treatment doses.

Structure (SMILES)	increase of acetate levels in the brain [1]	precipitation at the highest dose [2]
CC(=O)OCC(COC(C)=O)OC(C)=O [GTA, glyceryl triacetate]	over 15 fold	
CC(C)C[C@H](N)C(=O)O [leucine]		precipitating at a lower concentration than expected
